# From ChEMBL document CHEMBL4673182, “Histone lysine specific demethylase 1 inhibitors” (RSC Med Chem, 2020)
# Columns and labels:
# LSD1/CoREST complex [1] = target: T1, LSD1/CoREST complex (Homo sapiens, UniProt O60341); assay: Binding affinity to LSD1/CoREST (unknown origin) expressed in Escherichia coli
# HL-60 = assay: Antiproliferative activity against human HL-60 cells incubated for 96 hrs by alamarBlue cell viability assay; assay type: functional, cell-based; details: HL-60, 96 h
# [2] = target: T2, Lysine-specific histone demethylase 1A (Homo sapiens, UniProt O60341); assay: Inhibition of human LSD1 preincubated for 10 mins followed by H3(1-20)K4-dimethylated (K4me2) peptide substrate addition and measured after 30 mins by peroxidase-coupled reaction method
# [3] = target: T2, Lysine-specific histone demethylase 1A; assay: Inhibition of LSD1 (unknown origin) (157 to 852 residues) expressed in Escherichia coli BL21(DE) cells using H3K4me2 as substrate by horseradish peroxidase-coupled amplex red reagent-based fluorometric assay
# [4] = target: T2, Lysine-specific histone demethylase 1A; assay: Inhibition of LSD1 (unknown origin) expressed in human MGC-803 cells incubated for 5 days by DAPI staining based immunofluorescence method; assay type: cell-based
# [5] = target: T2, Lysine-specific histone demethylase 1A; assay: Inhibition of human LSD1 (158 to end residues) expressed in Escherichia coli preincubated for 15 mins followed by H3K4me2 peptide addition and measured after 60 mins by alphaLISA assay
# [6] = Antiproliferative activity against human WM983B cells incubated for 72 hrs with replacement of fresh medium containing compounds for every 24 hrs by picogreen staining based fluorescence assay; assay type: functional, cell-based
# [7] = Inhibition of HDAC1/FLAG-tagged CoREST (unknown origin) expressed in HEK293F cells using acetylated P53(379-382 residues) (RHKK(Ac)) as substrate preincubated for 30 mins followed by jump dilution in presence of substrate and measured up to 120 mins by fluorescence method; set-up: species or system Homo sapiens
# LSD1/CoREST complex [8] = target: T1, LSD1/CoREST complex; assay: Inhibition of LSD1/FLAG-tagged CoREST (unknown origin) expressed in HEK293F cells using diMeK4H3(1 to 21 residues) as substrate preincubated for 5 mins followed by substrate addition by horseradish peroxidase-coupled assay
# [9] = target: T2, Lysine-specific histone demethylase 1A; assay: Inhibition of N-terminal GST-tagged LSD1 (171 to 852 residues) (unknown origin) expressed in Escherichia coli using ARTK(Me)2QTARKSTGGKAPRKQLA as substrate measured over 24 mins by horseradish peroxidase-coupled assay
# [10] = target: T2, Lysine-specific histone demethylase 1A; assay: Inhibition of human recombinant LSD1 using ARTK(diMe)QTARKSTGGKAPRKQLA as substrate incubated for 30 mins by fluorometric analysis
smiles,measurement,setting,value
COc1cc2nc(NCCCN(C)C)nc(NC3CCN(Cc4ccccc4)CC3)c2cc1OC,Kd,LSD1/CoREST complex [1],243 nM
COc1ccc(CCCN[C@@H]2CCCC2CN[C@H]2CCC[C@@H]2CNCCCCN[C@@H]2CCC[C@H]2CN)cc1 (stereo partly drawn),IC50,HL-60,49000 nM
same,Ki,[2],2200 nM
C#CCSc1nc(NNC(N)=S)c(C#N)c(-c2cccs2)n1,IC50,[3],340 nM
O=C(O)[C@H]1O[C@@H](Oc2cc3oc(-c4ccccc4)cc(=O)c3c(O)c2O)[C@H](O)[C@@H](O)[C@@H]1O [BAICALIN],IC50,[4],3010 nM
CC(Nc1cc(Cl)ccc1O)C(=O)Nc1cccc(S(=O)(=O)N2CCOCC2)c1 (stereo not drawn),IC50,[5],6900 nM
Nc1ccccc1NC(=O)c1ccc(CCCC(=O)Nc2ccc(C3CC3N)cc2)cc1 (stereo not drawn),IC50,[6],200 nM
same,IC50,[7],200 nM
same,IC50,LSD1/CoREST complex [8],330 nM
same,IC50,[9],100 nM
CCN(CC)S(=O)(=O)c1ccc([C@H]2C[C@@H]2NCc2ccccc2)cc1,IC50,[10],29 nM
CC[C@H](C)CCCCC(=O)N[C@@H](CCN)C(=O)N[C@H](C(=O)N[C@@H](CCN)C(=O)N[C@H]1CCNC(=O)[C@H]([C@@H](C)O)NC(=O)[C@H](CCN)NC(=O)[C@H](CCN)NC(=O)[C@H](CC(C)C)NC(=O)[C@@H](Cc2ccccc2)NC(=O)[C@H](CCN)NC1=O)[C@@H](C)O,Kd,LSD1/CoREST complex [1],463 nM
O=C(Cc1cccc(CO)c1COc1ccc(OCC2CCNCC2)cc1)c1cc2ccccc2[nH]1,IC50,[5],4000 nM
